Assay results as given in US20050256092A1, “Antipsoriatic agent” (priority 2002, published 2005).
pIC50: −log10 of the molar value. Where two headings read alike, the source gives them in different places.

Assays:
[1] = system: adult-human-derived keratinocytes; assay: suppression of proliferation of cultured human keratinocytes ([3H]thymidine uptake); type: cell-based; conditions: for pIC50: [3H]thymidine uptake, cultured 3 days + 1 day, percentage of control, read-out: IC50 (mol/L) value, suppression of human keratinocyte proliferation
Procedure: The effect of suppressing the proliferation of cultured human keratinocytes by 2β-(3-hydroxypropyloxy)-1α,25-dihydroxyvitamin D3 (hereinafter referred to as “ED-71”) was investigated.
KGM-2 culture medium was added to each well of a 96-well plate (COSTAR 3595), and adult-human-derived keratinocytes (Clonetics) were seeded at a cell count of 1×10^3/well. Then, active vitamin D3 (1α,25-dihydroxyvitamin D3, produced by Solvay Pharmaceuticals) or ED-71 (produced by Chugai Seiyaku) was added to each well in a final concentration of 1×10^−10 mol/L, 1×10^−9 mol/L, 1×10^−8 mol/L, or 1×10^−7 mol/L. The cells were cultured in the KGM-2 culture medium at a cell concentration of 1×10^3/200 μl/well for 3 days at 37° C. in an atmosphere of 5% CO2 and 95% air. [^3H]thymidine was added in an amount of 7.4 kBq/well, and the cells were further cultured for 1 day. The culture medium was removed, and the cells were stripped off using 0.05% trypsin/EDTA (GIBCO BRL), and the amount of [^3H]thymidine taken up by the cells was measured with a liquid scintillation counter (1450 MICROBETA, Wallac). The cells cultured and treated in the same manner as described above, except for the addition of the active vitamin D3 or ED-71, were used as a control.
In FIG. 1, the [^3H]thymidine uptake into the cells treated with each drug is expressed as a percentage of the [^3H]thymidine uptake into the control cells.

[2] = system: epidermis of hairless mice; assay: epidermis thickening in hairless mice, percutaneous administration; type: in vivo; conditions: single percutaneous dose, compared with active vitamin D3
Source text: (§1) The effect of ED-71 administered percutaneously and orally was investigated using hairless mice.
(§2) Percutaneous administration of a vitamin D3 derivative in hairless mice was reported to cause hyperplasia of the epidermis (British Journal of Dermatology 1995; 132; 841-852).

[3] = system: epidermis of hairless mice; assay: epidermis thickening in hairless mice, oral administration; type: in vivo; conditions: administered orally for 4 days, compared with active vitamin D3
Source text: as §1, §2

| SMILES | human keratinocyte proliferation suppressing activity, relative value with respect to active vitamin D3 ([1]; (IC50 value of active vitamin D3)/(IC50 value of ED-71)) | pIC50 ([1]; Homo sapiens, Keratinocyte) | thickening of the epidermis [2] | thickening of the epidermis [3] | pIC50 [1] |
| --- | --- | --- | --- | --- | --- |
| C=C1/C(=C\C=C2/CCC[C@@]3(C)C2CC[C@@H]3[C@H](C)CCCC(C)(C)O)C[C@@H](O)[C@@H](OCCCO)[C@@H]1O (stereo partly drawn) [ED-71, 2β-(3-hydroxypropyloxy)-1α,25-dihydroxyvitamin D3] | ≥ 305.23 | > 10.00 | thickened the epidermis in a lower dose than the dose of active vitamin D3 | thickened the epidermis in a lower dose than the dose of active vitamin D3 | – |
| C=C1/C(=C\C=C2/CCC[C@]3(C)[C@@H]([C@H](C)CCCC(C)(C)O)CC[C@@H]23)C[C@@H](O)C[C@@H]1O [active vitamin D3, 1α,25-dihydroxyvitamin D3, reference compound] | – | – | – | – | 7.52 |
